For 19 compounds, IC50 and bioavailability results are on record in patent publication US20240109893A1, “PREPARATION AND APPLICATION METHOD OF HETEROCYCLIC COMPOUNDS AS KRAS INHIBITOR” (SHANGHAI KECHOW PHARMA, INC., priority 2020, published 2024).

One data set concerns H358 cells. Put plainly: Cell activity experiment: activity test of H358 cells (MTT, 5 days). To be noted: 5 days incubation, absorbance 492 nm. It counts as cell-based. In a few lines:
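Viability was read by MTT: 4 h dye incubation, DMSO solubilisation, absorbance at 492 nm. This followed 5 days' treatment (37° C., 5% CO2) of H358 cells, pre-grown 24 h, with eight-point 3-fold dilutions up to 10000 nM final, 0.5% DMSO final, triplicate wells.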

The target in another data set is KRAS G12C-GDP (Homo sapiens (Human), UniProt P01116, G12C). The data set is described as follows: KRAS G12C-GDP exchange test (SOS/cRAF/GTP, HTRF). The class given is biochemical. To be noted: 1 h premix with compound, 2 h reaction with SOS, cRAF, GTP. As to the method: 2. A mixture of SOS (Pharmaron, ZZY-20190823), cRAF (Pharmaron, ZZY-20190823), GTP (Sigma, A6885-100MG), MAb Anti 6HIS-d2/MAb Anti GST-Eu (Cisbio, 61HISDLB/61GSTKLB) was added for a catalyzed reaction for 2 h.
3. The fluorescence signals of the emitted light at 615 nm and 665 nm under 320 nm excitation light were read by Biotek Microplate Reader (Synergy4).
4. The IC50 (median inhibitory concentration) of the compound was obtained by the following non-linear fitting formula: Y=Bottom+(Top−Bottom)/(1+10^((Log IC50−X)*Hill Slope)), and the data were analyzed by Graphpad 6-0 software.

Data set [1] in a line: Pharmacokinetic experiment in SD rats. The class given is in vivo. As to conditions: male, Sprague-Dawley, rat, plasma, po, 10 mg/kg; read-out: Oral bioavailability, F %. As to the method:
Pharmacokinetic Experiment in SD Rats:
1. SPF male rats were randomly divided into groups. The compounds to be tested were separately administered by intravenous injection and oral gavage, with 3 animals for each compound to be tested in each mode of administration. The administration solvent was 5% DMSO+10% Solutol+85% normal saline or 85% PBS, and the substances to be tested were dissolved in the solvent to obtain clear solutions. Administration concentration and volume: 1) a single intravenous injection of 0.6 mg/mL of the compound to be tested, with an administration volume of 5 mL/kg and an administration dosage of 3 mg/kg; and 2) a single oral gavage of 1 mg/mL of the compound to be tested, with an administration volume of 10 mL/kg and an administration dosage of 10 mg/kg. The rats were fasted overnight (10-14 h) before administration and fed 4 h after administration.
2. Blood was collected via the jugular vein or by other appropriate methods at 200 μL per time point and anticoagulated with K2-EDTA, and after collection, the blood was placed on ice and centrifuged for plasma within 1 h (centrifugation conditions: 6800 g, 6 min 2-8° C.). The points for blood sampling from the animals in the intravenous injection group were respectively: before administration, and 5 min, 15 min, 30 min, 1 h, 2 h, 4 h, 8 h, and 24 h after administration; and the points for blood sampling from the animals in the oral administration group were respectively: before administration, and 15 min, 30 min, 1 h, 2 h, 4 h, 6 h, 8 h, and 24 h after administration.
3. The blood concentration was detected, and the pharmacokinetic parameter AUC(0-t) was calculated by Phoenix WinNonlin based on the blood concentration data at various time points. When the pharmacokinetic parameters were calculated, the BLQ before Cmax (including ‘No peak’) was calculated as 0: and BLQ after Cmax (including ‘No peak’) was not involved in the calculation.

In the case of “2-((S)-1-acryloyl-4-(6-fluoro-7-(8-chloro-7- fluoronaphthalen-1-yl)-2-(((S)-1-methylpyrrolidin-2- yl))methoxy)quinazolin-4-yl)piperazin-2-yl)acetonitrile [Example 395]”, the figures for the IC50 in the data set on H358 cells and at KRAS G12C-GDP were 61 nM and 1.32 nM, respectively.

In the case of `C=CC(=O)N1CCN(c2nc(OC[C@@H]3CCCN3C)nc3c(F)c(-c4cccc5c4CC4CC54)ncc23)C[C@@H]1CC#N` (single isomer, unassigned) [Example 873], the figures for the IC50 in the data set on H358 cells and on KRAS G12C-GDP were 12 nM and 0.79 nM, respectively.

`C=C(F)C(=O)N1CCN(c2nc(OC[C@@]34CCCN3C[C@H](F)C4)nc3c(F)c(-c4cccc5c4CC4CC54)ncc23)C[C@@H]1CC#N` (single isomer, unassigned) [Example 879]: the 50% inhibitory concentration (IC50) in the data set on H358 cells was determined as 4 nM; on KRAS G12C-GDP, 0.59 nM. The bioavailability in data set [1] stood at 16.9%.

As for `C=CC(=O)N1CCN(c2nc(OC[C@@H]3CCCN3C)nc3c(F)c(-c4cccc5c4CC4CC54)ccc23)C[C@@H]1CC#N` (single isomer, unassigned) [Example 881], the IC50 with H358 cells stood at 3.4 nM; on KRAS G12C-GDP, 0.71 nM.

Take `C=C(F)C(=O)N1CCN(c2nc(OC[C@@H]3CCCN3C)nc3c(F)c(-c4cccc5c4CC4CC54)ccc23)C[C@@H]1CC#N` (single isomer, unassigned) [Example 883]: the values for the IC50 in the data set on H358 cells and on KRAS G12C-GDP were 10.6 nM and 0.49 nM, respectively.

Take `C=CC(=O)N1CCN(c2nc(OC[C@@H]3CCCN3C)nc3c(F)c(-c4cccc5c4CCCC5)ncc23)C[C@@H]1CC#N` [Example 1, 2-((S)-1-acryloyl-4-(8-fluoro-2-(((S)-1-methylpyrrolidin-2-yl)methoxy)-7-(5,6,7,8-tetrahydronaphthalen-1-yl)pyridino[4,3-d]pyrimidin-4-yl)piperazin-2-yl)acetonitrile]: the IC50 was 15 nM with H358 cells (Homo sapiens, NCI-H358, 120 h) and 20.3 nM at KRAS G12C-GDP.

In the case of `C=CC(=O)N1CCN(c2nc(OCC34CCCN3CCC4)nc3c(F)c(-c4cccc5c4CCCC5)ncc23)C[C@@H]1CC#N` [Example 2, (S)-2-(1-acryloyl-4-(8-fluoro-2-((tetrahydro-1H-pyrrolizin-7a(5H)-yl)methoxy)-7-(5,6,7,8-tetrahydronaphthalen-1-yl)pyridino[4,3-d]pyrimidin-4-yl)piperazin-2-yl)acetonitrile], the IC50 amounted to 1 nM in the data set on H358 cells (Homo sapiens, NCI-H358, 120 h) and 10.6 nM on KRAS G12C-GDP.

For `C=C(F)C(=O)N1CCN(c2nc(OCC34CCCN3CCC4)nc3c(F)c(-c4cccc5c4CCCC5)ncc23)C[C@@H]1CC#N` [Example 3, (S)-2-(4-(8-fluoro-2-((tetrahydro-1H-pyrrolizin-7a(5H)-yl)methoxy)-7-(5,6,7,8-tetrahydronaphthalen-1-yl)pyridino[4,3-d]pyrimidin-4-yl)-1-(2-fluoroacryloyl)piperazin-2-yl)acetonitrile], the IC50 in the data set with H358 cells (Homo sapiens, NCI-H358, 120 h) amounted to 3.5 nM; on KRAS G12C-GDP, 13.8 nM.

Consider `C=C(F)C(=O)N1CC[C@@H]2[C@H]1CN2c1nc(OC[C@@H]2CCCN2C)nc2c(F)c(-c3cccc4c3CCCC4)ncc12` [Example 10, 2-fluoro-1-((1R,5R)-6-(8-fluoro-2-(((S)-1-methylpyrrolidin-2-yl)methoxy)-7-(5,6,7,8-tetrahydronaphthalen-1-yl)pyridino[4,3-d]pyrimidin-4-yl)-2,6-diazabicyclo[3.2.0]hept-2-yl)prop-2-en-1-one], for which the IC50 with H358 cells (Homo sapiens, NCI-H358, 120 h) was 60 nM; on KRAS G12C-GDP, 8 nM.

As for `C=CC(=O)N1CCN(c2nc(OC[C@@H]3CCCN3C)nc3c(F)c(-c4ccc(F)c5c4CCCC5)ncc23)C[C@@H]1CC#N` [Example 17, 2-((S)-1-acryloyl-4-(8-fluoro-7-(4-fluoro-5,6,7,8-tetrahydronaphthalen-1-yl)-2-(((S)-1-methylpyrrolidin-2-yl)methoxy)pyridino[4,3-d]pyrimidin-4-yl)piperazin-2-yl)acetonitrile], the IC50 is 30 nM in the data set on H358 cells (Homo sapiens, NCI-H358, 120 h) and 1.65 nM at KRAS G12C-GDP.

For the compound `C=CC(=O)N1CCN(c2nc(OC[C@@H]3CCCN3C)nc3cc(-c4cccc5cccc(Cl)c45)ccc23)C[C@@H]1CC#N` [Example 73, 2-((S)-1-acryloyl-4-(7-(8-chloronaphthalen-1-yl)-2-(((S)-1-methylpyrrolidin-2-yl)methoxy)quinazolin-4-yl)piperazin-2-yl)acetonitrile], the IC50 came to 15 nM in the data set on H358 cells (Homo sapiens, NCI-H358, 120 h) and 1.34 nM at KRAS G12C-GDP.

Regarding `C=CC(=O)N1CCN(c2nc(OC[C@@H]3CCCN3C)nc3nc(-c4cccc5cccc(Cl)c45)ccc23)C[C@@H]1CC#N` [Example 254, 2-((S)-1-acryloyl-4-(7-(8-chloronaphthalen-1-yl)-2-(((S)-1-methylpyrrolidin-2-yl)methoxy)pyridino[2,3-d]pyrimidin-4-yl)piperazin-2-yl)acetonitrile], the IC50 in the data set with H358 cells (Homo sapiens, NCI-H358, 120 h) was 30 nM; at KRAS G12C-GDP it was 8.9 nM.

Consider `C=CC(=O)N1CCN(c2nc(OC[C@@H]3CCCN3C)nc3nc(-c4cccc5c4CCCC5)ccc23)C[C@@H]1CC#N` [Example 286, 2-((S)-1-acryloyl-4-(2-(((S)-1-methylpyrrolidin-2-yl)methoxy)-7-(5,6,7,8-tetrahydronaphthalen-1-yl)pyridino[2,3-d]pyrimidin-4-yl)piperazin-2-yl)acetonitrile], for which the half-maximal inhibitory concentration (IC50) with H358 cells stood at 355 nM; on KRAS G12C-GDP it was 9.91 nM.

On to `C=CC(=O)N1CCN(c2nc(OC[C@@]34CCCN3C[C@H](F)C4)nc3c(F)c(-c4cccc5cccc(Cl)c45)ccc23)C[C@@H]1CC#N` [Example 367, 2-((2S)-1-acryloyl-4-(7-(8-chloronaphthalen-1-yl)-8-fluoro-2-((((2R,7aS)-2-fluorotetrahydro-1H-pyrrolizin-7a(5H))-yl)methoxy)quinazolin-4-yl)piperazin-2-yl)acetonitrile], for which, in the data set on H358 cells (Homo sapiens, NCI-H358, 120 h), the IC50 turned out to be 1.5 nM. For the same compound, in data set [1], the bioavailability is 11.6%.

As to `C=CC(=O)N1CCN(c2nc(OC[C@@H]3CCCN3C)nc3cc(-c4cccc5cccc(Cl)c45)c(Cl)cc23)C[C@@H]1CC#N` [Example 465, 2-((S)-1-acryloyl-4-(6-chloro-7-(8-chloronaphthalen-1-yl)-2-(((S)-1-methylpyrrolidin-2-yl)methoxy)quinazolin-4-yl)piperazin-2-yl)acetonitrile], the 50% inhibitory concentration (IC50) with H358 cells (Homo sapiens, NCI-H358, 120 h) came out at 70 nM; on KRAS G12C-GDP, 2.23 nM.

Regarding `C=CC(=O)N1CCN(c2nc(OC[C@@H]3CCCN3C)nc3cc(-c4cccc5ccc(F)c(Cl)c45)cnc23)C[C@@H]1CC#N` [Example 840, 2-((S)-1-acryloyl-4-(7-(8-chloro-7-fluoronaphthalen-1-yl)-2-(((S)-1-methylpyrrolidin-2-yl)methoxy)pyridino[3,2-d]pyrimidin-4-yl)piperazin-2-yl)acetonitrile], the IC50 with H358 cells (Homo sapiens, NCI-H358, 120 h) came out at 809 nM; on KRAS G12C-GDP, 4.52 nM.

Regarding `C=CC(=O)N1CCN(c2nc(OCC3(CN4CCCC4)CC3)nc3c(F)c(-c4cccc5cccc(Cl)c45)ncc23)C[C@@H]1CC#N` [Example 854, (S)-2-(1-acryloyl-4-(7-(8-chloronaphthalen-1-yl)-8-fluoro-2-((1-(pyrrolidin-1-ylmethyl)cyclopropyl)methoxy)pyridino[4,3-d]pyrimidin-4-yl)piperazin-2-yl)acetonitrile], the 50% inhibitory concentration (IC50) in the data set on H358 cells (Homo sapiens, NCI-H358, 120 h) is 4.4 nM; at KRAS G12C-GDP, 0.59 nM.

In turn, `C=C(F)C(=O)N1CCN(c2nc(OC[C@@]34CCCN3C[C@H](F)C4)nc3c(F)c(-c4cccc5ccc(F)c(Cl)c45)ccc23)C[C@@H]1CC#N` [Example 914, 2-((S)-4-(7-(8-chloro-7-fluoronaphthalen-1-yl)-8-fluoro-2-((2R,7aS)-2-fluorotetrahydro-1H-pyrrolizin-7a(5H)-ylmethoxy)quinazolin-4-yl)-1-(2-fluoroacryloyl)piperazin-2-yl)acetonitrile] returned a half-maximal inhibitory concentration (IC50) in the data set on H358 cells (Homo sapiens, NCI-H358, 120 h) of 0.4 nM. The bioavailability in data set [1] was 28.5%.

On to `C=C(F)C(=O)N1CCN(c2nc(OC[C@@H]3CCCN3C)nc3c(F)c(-c4cccc5c4CC4CC54)c(O)cc23)C[C@@H]1CC#N` (some centres unmarked) [Example 945], for which half-maximal inhibition in the data set on H358 cells (Homo sapiens, NCI-H358, 120 h) (IC50) was put at 155 nM.
